Source: PubChem BioAssay AID2745 (NMMLSC, 2010)
Values joined by “and” are separate entries in the source; they are usually repeats but may differ in a detail not shown here. Equal values may be shown once. Active and inactive are the calls of the source. How the calls were made is not given here.

system: S. cerevisiae LAP4-GFP reporter, flow cytometry fluorescence; test: LAP4-GFP modulation potency in yeast, dose response, cell-based, MLPCN hits, flow cytometry (AID 2745); details: not given;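 further: yeast exposed to compound for three hours at 30 degrees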

Compared with `O=C(Nc1ccccc1)c1nnsc1S(=O)(=O)c1ccc(Cl)cc1`, `O=C(Nc1nnc(-c2ccc(Cl)cc2)o1)c1ccccc1Br` is 7.6-fold higher in EC50: 0.564 µM for the first, 4.31 µM for the second. The first is the more potent here.

First: O=C1C=C(c2ccccc2)C(=O)N1Nc1ccccc1
Second: COc1ccc(C2=CC(=O)N(Nc3ccccc3)C2=O)cc1
The EC50 of the first is 6-fold lower: 1.62 µM for the first, 9.78 µM for the second.

First: COc1cccc(N=Nc2ccc(O)c3ncccc23)c1
Second: Oc1ccc2ccccc2c1N=Nc1nccs1
The EC50 of the first is 2.5-fold lower: 3.36 µM for the first, 8.45 µM for the second.

`Cc1ccc(C(=O)O)cc1N=Cc1cc(Br)cc(Br)c1O` and `Cc1ccc(/C=C/C(=O)c2ccccc(=O)c2O)c(C)c1` are within 1.5-fold of each other in EC50: 4.17 µM for the first, 4.15 µM for the second.

`O=C1ON=C(c2ccccc2)/C1=C\c1ccco1` and `O=C1ON=C(c2ccccc2)/C1=C/c1ccco1` are within 1.5-fold of each other in EC50: 3.67 µM for the first, 4.26 µM for the second.

Compared with `O=S(=O)(CCN(CCS(=O)(=O)C(F)(F)F)CC1CCCO1)C(F)(F)F` (stereo unspecified), `O=c1oc2cc(Oc3c([N+](=O)[O-])cc(C(F)(F)F)cc3[N+](=O)[O-])ccc2c2c1CCCC2` is 2.5-fold lower in EC50: 7.67 µM for the first, 3.04 µM for the second.

Going from `CCOC(=O)c1ccc(N=Cc2nc(-c3ccccc3)oc2OC(C)=O)cc1` to `Cc1ccc(C(=O)Oc2oc(-c3ccco3)nc2C=Nc2ccc(Cl)cc2)cc1`, the EC50 falls from 25.9 µM to 3.6 µM (7.2-fold). The second is the more potent here.

Compared with `O=C(Oc1ccnc2cc(Cl)ccc12)N1CCCCCC1`, `O=C1C=CC(=O)N1c1ccc(N2CCCCC2)cc1` is 9.8-fold lower in EC50: 12.1 µM for the first, 1.24 µM for the second.

First: O=C1NC(=O)N(Cc2ccc(F)cc2)C(=O)/C1=C/c1cccs1
Second: COc1ccc(N2C(=O)/C(=C/c3cccs3)C(=O)NC2=S)cc1
The EC50 of the first is 2.6-fold higher: 3.41 µM for the first, 1.32 µM for the second. The second is the more potent here.

First: O=c1[nH]c(-c2ccccn2)nc(C(F)(F)F)c1Br
Second: O=c1cc(CSc2ccc(Cl)cc2)nc(-c2ccccn2)[nH]1
The EC50 of the first is 2.5-fold lower: 2.55 µM for the first, 6.28 µM for the second.

Compared with `COC(=O)/C(=C/c1c[nH]c2ccccc12)[N+](=O)[O-]`, `CC(=O)SC(C[N+](=O)[O-])c1cn(C(C)=O)c2ccccc12` (stereo unspecified) is 1.9-fold lower in EC50: 20.7 µM for the first, 10.7 µM for the second.

Compared with `COc1ccc(/C=C/C(=O)C2C(=O)C=C(C)OC2=O)cc1O` (stereo unspecified), `COc1cccc(/C=C/C(=O)c2c(O)cc(C)oc2=O)c1O` is 2.6-fold lower in EC50: 11.7 µM for the first, 4.42 µM for the second.

First: Cc1cc(C(=O)Nc2nc(-c3ccccn3)cs2)ccc1[N+](=O)[O-]
Second: CCc1sc(C(=O)Nc2nc(-c3ccccn3)cs2)cc1C
The EC50 of the first is 1.6-fold higher: 6.15 µM for the first, 3.94 µM for the second. The second is the more potent here.

Going from `CC1=NNC(=O)/C1=C\c1cn(-c2ccccc2)nc1-c1cccs1` to `CC1=NNC(=O)/C1=C\c1cn(-c2ccccc2)nc1-c1ccccc1`, the EC50 rises from 1.32 µM to 7.23 µM (5.5-fold). The first is the more potent here.

First: O=C(O)/C=C/C(=O)c1ccc2c(c1)CCc1ccccc1-2
Second: Nc1ccccc1C#CC(=O)c1ccccc1
The EC50 of the first is 6.9-fold lower: 1.2 µM for the first, 8.31 µM for the second.

Compared with `O=C(COc1ccccc1)NNC(=S)NC(=O)c1ccc(Cl)cc1Cl`, `CC(Oc1ccc(Cl)cc1)C(=O)NNC(=S)NC(=O)c1ccco1` (stereo unspecified) is 2.5-fold lower in EC50: 17.8 µM for the first, 7.2 µM for the second.

`N#Cc1nccnc1S(=O)(=O)c1cccs1` and `Cc1ccc(S(=O)(=O)c2ncccc2[N+](=O)[O-])cc1` are within 1.5-fold of each other in EC50: 14 µM for the first, 14.6 µM for the second.

First: Cc1ccc(S(=O)(=O)c2ccc([N+](=O)[O-])cn2)cc1
Second: COc1ccc([N+](=O)[O-])c(S(=O)(=O)c2ccc(Cl)cc2)n1
The EC50 of the first is 7.5-fold higher: 14.9 µM for the first, 1.99 µM for the second. The second is the more potent here.

Compared with `CC(Oc1cccc(Cl)c1)C(=O)Nc1nc(-c2ccccn2)cs1` (stereo unspecified), `O=C(Nc1nc(-c2ccccn2)cs1)c1cc2ccccc2o1` is 6.1-fold lower in EC50: 25.1 µM for the first, 4.09 µM for the second.

First: Cc1ccc(C(c2cc(Cl)c3cccnc3c2O)N2CCN(C)CC2)cc1 (stereo unspecified)
Second: O=[N+]([O-])c1cc(Cl)c2cccnc2c1O
The EC50 of the first is 2.6-fold higher: 2.21 µM for the first, 0.859 µM for the second. The second is the more potent here.

Compared with `CCOC(=O)CSC1=NC(=O)/C(=C/c2ccc(Br)cc2)S1`, `COc1ccc(/C=C2\C(=O)ON=C2c2ccccc2)cc1` is 2.2-fold lower in EC50: 15 µM for the first, 6.86 µM for the second.

`CC1=C/C(=N\OS(=O)(=O)c2ccccc2)C(C(C)C)=CC1=O` and `Cn1ncc(S(=O)(=O)Cc2ccccc2)c(Cl)c1=O` are within 1.5-fold of each other in EC50: 5.16 µM for the first, 4.01 µM for the second.

First: O=C(c1ccc(C(=O)N2CCCc3ccccc32)s1)N1CCCc2ccccc21
Second: O=S1(=O)C=C(Sc2nc3ccccc3s2)c2ccccc21
The EC50 of the first is 2.4-fold higher: 7.77 µM for the first, 3.29 µM for the second. The second is the more potent here.

First: O=C(OCn1ncc(Br)c(Br)c1=O)c1c(F)cccc1F
Second: Cc1cc(C(=O)COC(=O)c2ccc[nH]c2=O)c(C)n1-c1ccccc1F
The EC50 of the first is 20-fold higher: 16.9 µM for the first, 0.863 µM for the second.

First: O=[N+]([O-])c1ccc(O)c(/C=N/Nc2ccccn2)c1
Second: O=[N+]([O-])c1cc(Cl)cc(/C=N\Nc2ccccn2)c1O
The EC50 of the first is 3.8-fold higher: 12.5 µM for the first, 3.33 µM for the second. The second is the more potent here.

Compared with `O=C1C=CC(=O)N1c1ccc(O)cc1`, `O=C1C=CC(=O)N1c1cccc(-c2ccccc2)c1` is 11-fold lower in EC50: 4.09 µM for the first, 0.385 µM for the second.

First: COc1cc(SSc2cc(OC)cc([N+](=O)[O-])c2N)c(N)c([N+](=O)[O-])c1
Second: CNc1nc(N)c([N+](=O)[O-])c(Nc2cccc(F)c2)n1
The EC50 of the first is 1.5-fold higher: 8.26 µM for the first, 5.5 µM for the second. The second is the more potent here.

First: Cc1ccc(N/N=C(\C#N)C(N)=S)c(C)c1
Second: Cc1ccc2nc(Cl)c3nnnn3c2c1
The EC50 of the first is 3-fold higher: 11.7 µM for the first, 3.84 µM for the second. The second is the more potent here.

Compared with `O=C(Oc1c(Cl)cc(Cl)c2cccnc12)c1ccco1`, `N/C(Cc1ccc(Cl)c(Cl)c1)=N\OC(=O)c1cccs1` is 2-fold higher in EC50: 2.46 µM for the first, 5.04 µM for the second. The first is the more potent here.

`CCSc1nnc(NC(=O)c2ccccn2)s1` and `C/C(=N/NC(=O)c1ccc(C(C)(C)C)cc1)c1ccccn1` are within 1.5-fold of each other in EC50: 30.3 µM for the first, 32.7 µM for the second.

Compared with `CCCCCCCCn1sccc1=O`, `CCCCC(=O)NNC(=S)NC(=O)c1ccc(C)cc1` is 12-fold higher in EC50: 0.912 µM for the first, 11.3 µM for the second.

Compared with `O=c1/c(=C/c2cccc3ccccc23)sc2ncnn12`, `Cc1cccc(Nc2nc(-c3ccccn3)cs2)n1` is 2.4-fold lower in EC50: 9.22 µM for the first, 3.79 µM for the second. The second is the more potent here.

First: Cc1ccc(NN2C(=O)C=C(c3ccc(Cl)cc3)C2=O)cc1
Second: O=C(Nc1ccc(Cl)cc1Cl)c1cccc(N2C(=O)C=CC2=O)c1
The EC50 of the first is 5.7-fold lower: 0.691 µM for the first, 3.92 µM for the second.

Going from `O=C1NC(=O)N(Cc2ccco2)C(=O)/C1=C/c1ccc(-c2cccc([N+](=O)[O-])c2)o1` to `CCOC(=O)c1cc(-c2ccc(/C=C3/C(=O)NC(=O)C(C#N)=C3C)o2)ccc1Cl`, the EC50 falls from 6.36 µM to 1.36 µM (4.7-fold).

Compared with `O=C(NC(=S)NNC(=O)c1cnccn1)c1ccc(F)cc1`, `O=C(/C=C/c1ccc(F)cc1)NC(=S)NNC(=O)c1cnccn1` is 5.2-fold lower in EC50: 7.94 µM for the first, 1.54 µM for the second. The second is the more potent here.

Going from `Cc1c(Cc2ccccc2)c(NCCN(C)C)n2c(nc3ccccc32)c1C#N` to `Cc1[nH]n(-c2ccccc2)c(=O)c1C(c1ccccc1[N+](=O)[O-])C(C#N)C#N` (stereo unspecified), the EC50 falls from 29.9 µM to 7.67 µM (3.9-fold).

Going from `CCN1/C(=C/C(C)=C/c2sc3ccccc3[n+]2CC)Sc2ccccc21` to `Cc1cccc(C)c1NC(=O)C(Cl)C(=O)c1ccccc1` (stereo unspecified), the EC50 falls from 4.21 µM to 1.45 µM (2.9-fold). The second is the more potent here.

`Cc1ccsc1/C=N/Nc1ncc(Cl)cc1Cl` and `COc1cccc(/C=N/Nc2ccc([N+](=O)[O-])cn2)c1O` are within 1.5-fold of each other in EC50: 6.19 µM for the first, 5.73 µM for the second.

`CCc1ccc(OCC(=O)NNC(=S)NC(=O)C2CC2)c(Br)c1` and `CN(Cc1cnc2nc(N)nc(N)c2n1)c1ccc(C(=O)N[C@@H](CCC(=O)O)C(=O)O)cc1` are within 1.5-fold of each other in EC50: 5.45 µM for the first, 5.18 µM for the second.

`CC(C)(C)C(=O)C(Cl)C(=O)Nc1ccccc1` (stereo unspecified) and `COc1ccccc1OCCCc1c(C)n[nH]c1C` are within 1.5-fold of each other in EC50: 14.6 µM for the first, 20.1 µM for the second.

Compared with `ClC(Cl)(c1nnnn1-c1ccccc1)c1nnnn1-c1ccccc1`, `COc1cccc2sc(Nc3nc(-c4ccccn4)cs3)nc12` is 2.8-fold lower in EC50: 3.8 µM for the first, 1.36 µM for the second. The second is the more potent here.

First: O=C1NC(=S)NC(=O)C1=Cc1ccc2c(c1)CCN2CCCCl
Second: Oc1c(I)cc(I)c2cccnc12
The EC50 of the first is 5.8-fold higher: 4.06 µM for the first, 0.7 µM for the second.

With `O=[N+]([O-])c1ccc(O)c2ncccc12` the EC50 was 0.607 µM and 0.752 µM.

system: not listed separately; test: as above; details: S. cerevisiae LAP4-GFP reporter, flow cytometry fluorescence; at 33 µM (top of the series)

In the case of `CN(Cc1cnc2nc(N)nc(N)c2n1)c1ccc(C(=O)N[C@@H](CCC(=O)O)C(=O)O)cc1`, the LAP4-GFP fluorescence (kMESF) is reported as 10.8 kMESF (inactive).
